Measured values reported in a compilation of properties of binary mixtures (doi:10.1016/j.molliq.2019.01.093).

Assay: xn = mol fraction of the nth substance listed
Details: 298.1 K, 100 kPa

## CC(=O)[O-].CC[n+]1ccn(C)c1 + CS(C)=O
x1 = 0.01
  electrical conductivity: 0.16 S/m
x1 = 0.029
  electrical conductivity: 0.48 S/m
x1 = 0.044
  electrical conductivity: 0.63 S/m
x1 = 0.055
  electrical conductivity: 0.73 S/m
x1 = 0.082
  electrical conductivity: 0.83 S/m
x1 = 0.165
  electrical conductivity: 1.04 S/m
x1 = 0.237
  electrical conductivity: 1.07 S/m
x1 = 0.313
  electrical conductivity: 1.01 S/m
x1 = 0.415
  electrical conductivity: 0.93 S/m
x1 = 0.513
  electrical conductivity: 0.81 S/m
x1 = 0.813
  electrical conductivity: 0.5 S/m
x1 = 1
  electrical conductivity: 0.38 S/m

## CCOP(=O)([O-])OCC.CC[n+]1ccn(C)c1 + CS(C)=O
x1 = 0.006
  electrical conductivity: 0.1 S/m
x1 = 0.013
  electrical conductivity: 0.19 S/m
x1 = 0.04
  electrical conductivity: 0.48 S/m
x1 = 0.059
  electrical conductivity: 0.57 S/m
x1 = 0.074
  electrical conductivity: 0.62 S/m
x1 = 0.119
  electrical conductivity: 0.68 S/m
x1 = 0.169
  electrical conductivity: 0.64 S/m
x1 = 0.233
  electrical conductivity: 0.57 S/m
x1 = 0.32
  electrical conductivity: 0.5 S/m
x1 = 0.544
  electrical conductivity: 0.28 S/m

## CC[n+]1ccn(C)c1.F[B-](F)(F)F + CS(C)=O
x1 = 0.01
  electrical conductivity: 0.25 S/m
x1 = 0.017
  electrical conductivity: 0.69 S/m
x1 = 0.021
  electrical conductivity: 0.67 S/m
x1 = 0.032
  electrical conductivity: 1.04 S/m
x1 = 0.051
  electrical conductivity: 1.24 S/m
x1 = 0.066
  electrical conductivity: 1.53 S/m
x1 = 0.097
  electrical conductivity: 1.68 S/m
x1 = 0.15
  electrical conductivity: 1.84 S/m
x1 = 0.286
  electrical conductivity: 1.67 S/m
x1 = 0.483
  electrical conductivity: 1.48 S/m
x1 = 0.782
  electrical conductivity: 1.13 S/m
x1 = 1
  electrical conductivity: 0.91 S/m
